Reference: ChEMBL document CHEMBL5137057, “Small Carbohydrate Derivatives as Potent Antibiofilm Agents” (J Med Chem, 2022)

Columns and labels:
[1] = target: T1, PA-I galactophilic lectin (Pseudomonas aeruginosa (strain ATCC 15692 / PAO1 / 1C / PRS 101 / LMG12228), UniProt Q05097); experiment: Inhibition of Pseudomonas aeruginosa LecA incubated for 4 to 6 hrs by fluorescence polarization based competitive binding analysis
T1 sequence (Q05097 whole entry): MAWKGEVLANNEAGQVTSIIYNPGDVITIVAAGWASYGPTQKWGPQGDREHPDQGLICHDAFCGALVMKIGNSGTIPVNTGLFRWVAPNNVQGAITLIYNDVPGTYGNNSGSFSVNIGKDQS

[2] = target: Type 1 fimbrin D-mannose specific adhesin (Escherichia coli K-12) (UniProt P08191); experiment: Inhibition of Escherichia coli UTI89 FimH by hemagglutination assay
[3] = tested on: Mycolicibacterium smegmatis; experiment: Antimicrobial activity against Mycobacterium smegmatis MC2 155 assessed as planktonic growth inhibition measured after 48 hrs by microplate reader analysis; type: functional
[4] = tested on: Mycolicibacterium smegmatis; experiment: Antibiofilm activity against Mycobacterium smegmatis MC2 155 assessed as […] measured after 48 hrs by crystal violet staining based analysis; type: functional
Staphylococcus aureus [5] = experiment: Antibiofilm activity against methicillin-sensitive Staphylococcus aureus UAMS-1 measured after 22 hrs by crystal violet staining based assay; type: functional
Staphylococcus aureus [6] = experiment: Potentiation of vancomycin-induced antibacterial activity against methicillin resistant Staphylococcus aureus Mu50 in presence of vancomycin; type: functional, organism-based
[7] = target: Type 1 fimbrin D-mannose specific adhesin (Escherichia coli K-12) (UniProt P08191); experiment: Relative inhibitory potency, ratio of methyl alpha-D-mannose Kd to compound Kd for binding affinity to Escherichia coli FimH by ELISA assay; settings: K12
Staphylococcus aureus [8] = experiment: Potentiation of vancomycin-induced antibacterial activity against methicillin resistant Staphylococcus aureus Mu50 pretreated with compound followed by vancomycin addition; type: functional, organism-based
[9] = Binding affinity to Lactobacillus reuteri Glucosyltransferase assessed as dissociation constant by SPR analysis; design: species or system Limosilactobacillus reuteri
[10] = target: T2, Fucose-binding lectin PA-IIL (Pseudomonas aeruginosa (strain ATCC 15692 / DSM 22644 / CIP 104116 / JCM14847 / LMG 12228 / 1C / PRS 101 / PAO1), UniProt Q9HYN5); experiment: Inhibition of Pseudomonas aeruginosa PA14 LecB incubated for 22 to 24 hrs by fluorescence polarization based competitive binding analysis
Target sequence in this assay (Q9HYN5 1-115): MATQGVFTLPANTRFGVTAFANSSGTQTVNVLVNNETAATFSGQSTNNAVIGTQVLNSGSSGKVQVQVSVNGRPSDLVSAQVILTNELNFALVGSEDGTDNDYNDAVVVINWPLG

[11] = target: T2, Fucose-binding lectin PA-IIL; experiment: Binding affinity to Pseudomonas aeruginosa PAO1 LecB assessed as dissociation constant by isothermal titration calorimetry
Target sequence in this assay (Q9HYN5 whole entry): as the sequence (Q9HYN5 1-115) above

[12] = target: T2, Fucose-binding lectin PA-IIL; experiment: Binding affinity to Pseudomonas aeruginosa PA14 LecB assessed as dissociation constant by isothermal titration calorimetry
Target sequence in this assay (Q9HYN5 1-115): as above

[13] = target: T1, PA-I galactophilic lectin; experiment: Binding affinity to Pseudomonas aeruginosa LecA assessed as dissociation constant by isothermal titration calorimetry
Pseudomonas aeruginosa = experiment: Antibiofilm activity against Pseudomonas aeruginosa PA14 measured after 48 hrs by confocal laser scanning microscope analysis relative to control; type: functional
[14] = target: Type 1 fimbrin D-mannose specific adhesin (Escherichia coli K-12) (UniProt P08191); experiment: Relative inhibitory potency, ratio of methyl alpha-D-mannose Kd to compound Kd for binding affinity to C-terminal His-tagged truncated Escherichia coli FimH by SPR analysis; settings: K12
Streptococcus agalactiae [15] = experiment: Antibiofilm activity against Streptococcus agalactiae GRS90; type: functional; settings: dose 128 µg/ml; time 22 hrs
Streptococcus agalactiae [16] = experiment: Antibiofilm activity against Streptococcus agalactiae GB2; type: functional

Sequence of Type 1 fimbrin D-mannose specific adhesin (Escherichia coli K-12) (P08191 whole entry, the tested form may be a part): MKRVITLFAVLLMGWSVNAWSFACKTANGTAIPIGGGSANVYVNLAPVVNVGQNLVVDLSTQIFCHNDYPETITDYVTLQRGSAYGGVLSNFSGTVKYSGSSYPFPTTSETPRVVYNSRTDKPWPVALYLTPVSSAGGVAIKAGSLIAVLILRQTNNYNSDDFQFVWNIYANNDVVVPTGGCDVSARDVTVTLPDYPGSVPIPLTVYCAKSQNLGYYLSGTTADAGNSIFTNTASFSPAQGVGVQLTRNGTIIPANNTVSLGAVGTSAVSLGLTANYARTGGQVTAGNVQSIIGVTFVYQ

O[C@H]1[C@@H](O)[C@H](C2CO2)O[C@@H](Oc2ccccc2)[C@@H]1O (single isomer, unassigned)
IC50 [1]: > 3000 µM

CNC(=O)c1cccc(-c2ccc(O[C@H]3O[C@H](CO)[C@@H](O)[C@H](O)[C@@H]3O)c(C(F)(F)F)c2)c1
EC>90 [2]: 32 nM

C[C@H]1O[C@H](O[C@H]2O[C@H](CO)[C@@H](O)[C@H](O)[C@H]2O)[C@H](O)[C@@H](O)[C@@H]1O
MIC [3]: > 500 µM
MBIC [4]: 100 µM

O=c1oc2c(O)c(O)cc3c(=O)oc4c(O)c(O)cc1c4c23 [ELLAGIC ACID]
MBIC50 (Staphylococcus aureus [5]): 128 µg/mL
MBIC90 (Staphylococcus aureus [5]): >512 µg/mL
MIC50 (Staphylococcus aureus [5]; Staphylococcus aureus, UAMS-1): > 512 µg/mL

O[C@H]1[C@@H](O)[C@@H](C2CO2)O[C@@H](Oc2ccccc2)[C@@H]1O (some centres not stated)
IC50 [1]: 64 µM

O=C(NC[C@@H]1O[C@H](CNC(=O)c2ccccc2Cl)[C@@H](O)[C@H]1O)c1ccccc1
EC50 (Staphylococcus aureus [6]): 3.71 µM

CCOc1c(Nc2ccc(O[C@H]3O[C@H](CO)[C@@H](O)[C@H](O)[C@@H]3O)cc2)c(=O)c1=O
Ratio [7]: 1800

O=C(NC[C@]1(O)CO[C@H](CN2C(=O)c3ccccc3C2=O)[C@H]1O)c1ccccc1
EC50 (Staphylococcus aureus [8]): 5010 nM
EC50 (Staphylococcus aureus [6]): 8.29 µM

OC[C@H]1O[C@H](O[C@H]2O[C@H](CO)[C@@H](O)[C@H](O)[C@H]2O)[C@@H](O)[C@@H](O)[C@@H]1O
MIC [3]: > 500 µM
MBIC [4]: >500 µM

C[C@H]1[C@H](Oc2ccc(/C=N/NC(=O)C3CCN(C(=O)OC(C)(C)C)CC3)cc2)O[C@H](CO)[C@@H](O)[C@@H]1O
Kd [9]: 1.6 mM

CCOc1c(Nc2ccc(O[C@H]3O[C@H](CO)[C@@H](O)[C@H](O)[C@@H]3O)c(Cl)c2)c(=O)c1=O
Ratio [7]: 6900

C[C@@H]1O[C@H](CNC(=O)/C=C/c2ccccc2)[C@@H](O)[C@H](O)[C@@H]1O
IC50 [10]: 2500 nM
Kd [11]: 3090 nM
Kd [12]: 2590 nM

O=C(O)/C=C(\C[C@@H]1O[C@H](CO)[C@H](O)[C@H](O)[C@H]1O)c1ccccc1
Kd [13]: 37 µM

Cc1cc(-c2ccc3ccn(C(=O)Nc4cccnc4)c(=O)c3c2)ccc1O[C@H]1O[C@H](CO)[C@@H](O)[C@H](O)[C@@H]1O
EC>90 [2]: 62 nM

C[C@@H]1O[C@H](CNS(=O)(=O)c2cccs2)[C@@H](O)[C@H](O)[C@@H]1O
Activity (Pseudomonas aeruginosa): 80%

Cc1cc(=O)oc2ccc(O[C@H]3O[C@H](CO)[C@@H](O)[C@H](O)[C@@H]3O)cc12
Ratio [14]: 380

OC[C@H]1O[C@H](O[C@H]2S[C@H](CO)[C@@H](O)[C@H](O)[C@H]2O)[C@H](O)[C@@H](O)[C@@H]1O
MIC [3]: > 500 µM
MBIC [4]: 100 µM

O=c1oc2c(O[C@@H]3OC[C@H](O)[C@H](O)[C@H]3O)c(O)cc3c(=O)oc4c(O)c(O)cc1c4c23
MBIC50 (Streptococcus agalactiae [15]): 512 µg/mL
MBIC50 (Streptococcus agalactiae [16]): 512 µg/mL

COc1ccc(/C=N/NC(=O)c2ccc(O[C@@H]3O[C@H](CO)[C@H](O)[C@H](O)[C@H]3O)cc2)cc1
IC50 [1]: 55.5 µM
Kd [13]: 5.6 µM

OC[C@H]1O[C@@H](OCc2cn([C@H]3[C@H](O)[C@@H](O)[C@H](n4cc(-c5ccc(-c6cn([C@@H]7O[C@H](CO)[C@@H](n8cc(CO[C@@H]9O[C@H](CO)[C@H](O)[C@H](O)[C@H]9O)nn8)[C@H](O)[C@H]7O)nn6)cc5)nn4)O[C@@H]3CO)nn2)[C@H](O)[C@@H](O)[C@H]1O
Kd [13]: 0.012 µM

O=C(NC[C@]1(O)CO[C@H](CN2C(=O)c3ccccc3C2=O)[C@H]1O)c1ccccc1Cl
EC50 (Staphylococcus aureus [8]): 260 nM
EC50 (Staphylococcus aureus [6]): 1.27 µM

Cc1cc(C)c(S(=O)(=O)NC[C@H]2O[C@@H](C)[C@@H](O)[C@@H](O)[C@@H]2O)c(C)c1
IC50 [10]: 340 nM
Activity (Pseudomonas aeruginosa): 80%
Kd [11]: 1270 nM
Kd [12]: 310 nM

CNC(=O)c1cccc(-c2ccc(O[C@H]3O[C@H](CO)[C@@H](O)[C@H](O)[C@@H]3O)c(C)c2)c1
EC>90 [2]: 62 nM
